The values below come from EP4768499A1, “MACROCYCLIC PEPTIDE COMPOUND HAVING CELL MEMBRANE PERMEABILITY AND METABOLIC STABILITY, AND LIBRARY CONTAINING SAME” (Chugai Seiyaku Kabushiki Kaisha, priority 2023, dated 2025).

Starred links: 1 amine or outer side, 2 acyl side, 3 side chain; linkers in the order of their positions; H or OH if unused. Positions of bridges follow the written chain, without caps; N, C: chain ends. Non-standard residues stand in square brackets, D forms with d. Residues, ends and D or L forms follow the SMILES beside them. *: point of attachment. NMedβ3hAla = C[C@H](CC(=O)[*:2])N(C)[*:1]; NMeF = CN[C@@H](Cc1ccccc1)C(=O)O; NMeI = CC[C@H](C)[C@H](NC)C(=O)O; NMeT = CN[C@H](C(=O)O)[C@@H](C)O; hPhe = N[C@@H](CCc1ccccc1)C(=O)O; NMeβAla = CN(CCC(=O)[*:2])[*:1]; NMeD = CN[C@@H](CC(=O)O)C(=O)O; NMeL = CN[C@@H](CC(C)C)C(=O)O; NMeV = CN[C@H](C(=O)O)C(C)C; NMeAbu = CC[C@H](NC)C(=O)O; NMeA = CN[C@@H](C)C(=O)O; Piperidide = C1CCN(*)CC1; dNMeA = CN[C@H](C)C(=O)O; Abu = CC[C@H](N)C(=O)O; NBuGly = CCCCNCC(=O)O; βAla = NCCC(=O)O; Sar = CNCC(=O)O; tBu = CC(C)(C)*

A short description of data set [1]: Metabolic stability test: liver microsomal stability assay. The following applies: mouse liver microsomes 0.5 mg protein/mL, compound 1 µM; for microsomal CLint at 1 µM: male, pH 7.4, presence of NADPH, read-out: Mouse Hepatic Microsome CLh,int NADPH(+); for Mouse Hepatic Microsome CLh,int NADPH(-): absence of NADPH. It counts as in vitro ADME, mouse. For orientation: Microsomes from liver hold many membrane-bound enzymes, among them those of drug oxidation.

A short description of data set [2]: Membrane permeability test using Caco-2 cells with preincubation. The following applies: Caco-2; preincubation 20 to 24 hours; Apical FaSSIF/HBSS pH 6.0, Basal HBSS 4% BSA pH 7.4; 180 minutes; read-out: Caco2 Papp. It counts as in vitro ADME.
For another data set, the system named is Caco-2 cells. Described as above. It counts as in vitro ADME. The following applies: Caco-2 cells, preincubation 20 to 24 hours; apical FaSSIF/HBSS 1% DMSO pH 6.0, basal HBSS 4% BSA pH 7.4; basal sample at 180 minutes.

In the case of `CC[C@H](C)[C@@H]1NC(=O)[C@H](CC(C)C)N(C)C(=O)[C@H](C)N(C)C(=O)[C@H](C)NC(=O)C[C@@H](C)N(C)C(=O)[C@H](CC(C)C)N(C)C(=O)[C@H](C)N(C)C(=O)CN(C)C(=O)[C@H]([C@@H](C)O)NC(=O)[C@H](Cc2ccccc2)N(C)C(=O)[C@H](CC(C)C)N(C)C(=O)[C@H](C(C)C)NC(=O)[C@H]([C@@H](C)CC)N(C)C1=O` [pd148] (cyclo(A[NMeA][NMeL]I[NMeI]V[NMeL][NMeF]T[Sar][NMeA][NMeL][NMedβ3hAla])), in data set [1], the microsomal CLint at 1 µM was 25.2 µL/min/mg and the “Mouse Hepatic Microsome CLh,int NADPH(-)” value is given as 16.8 µL/min/mg Protein. Further, in data set [2], the Papp A→B is 1.2 nm/s. The “Caco2 Papp (10^-6 cm/sec)” value in the data set with Caco-2 cells is given as 0.12 10^-6 cm/sec.
On the same counts, the results for `CC[C@@H]1NC(=O)[C@H](Cc2ccccc2)N(C)C(=O)[C@@H]2CCCN2C(=O)[C@H](CC(C)C)N(C)C(=O)[C@H](C(C)C)NC(=O)[C@H](CC(C)C)N(C)C(=O)[C@H]([C@@H](C)O)NC(=O)[C@H](Cc2ccccc2)N(C)C(=O)CN(C)C(=O)C[C@@H](C)N(C)C(=O)[C@H](C(C)C)NC(=O)[C@H](CC)N(C)C(=O)[C@H](C)N(C)C1=O` [pd149] (cyclo([Abu][NMeA][NMeAbu]V[NMedβ3hAla][Sar][NMeF]T[NMeL]V[NMeL]P[NMeF])) are 10.8 µL/min/mg, 1.5 µL/min/mg Protein, 2 nm/s and 0.20 10^-6 cm/sec.
For `CC[C@H]1C(=O)N(C)[C@H](C)CC(=O)N(C)[C@H](C)C(=O)N(C)[C@@H](C)C(=O)N(C)[C@@H](Cc2ccccc2)C(=O)N[C@@H](C(C)C)C(=O)N(C)[C@@H](CC(C)C)C(=O)N(C)[C@@H]([C@@H](C)O)C(=O)N(C)CC(=O)N[C@@H](C)C(=O)N(C)[C@@H](CC(C)C)C(=O)N[C@@H](COC(C)(C)C)C(=O)N(C)[C@@H](Cc2ccccc2)C(=O)N1C` [pd150] (cyclo(A[NMeL]S(tBu)[NMeF][NMeAbu][NMedβ3hAla][dNMeA][NMeA][NMeF]V[NMeL][NMeT][Sar])) the same measures were 15.2 µL/min/mg, 4.2 µL/min/mg Protein, 2.9 nm/s and 0.29 10^-6 cm/sec.
On the same counts, the results for `CC[C@H](C)[C@@H]1NC(=O)[C@H]([C@@H](C)CC)N(C)C(=O)[C@@H](C)NC(=O)C[C@@H](C(=O)N2CCCCC2)N(C)C(=O)[C@H](C(C)C)NC(=O)[C@H](Cc2ccccc2)N(C)C(=O)[C@H](COC(C)(C)C)NC(=O)[C@H](CC(C)C)N(C)C(=O)[C@H](C)NC(=O)CN(C)C(=O)[C@H](CC(C)C)N(C)C(=O)[C@H](C)N(C)C(=O)[C@H](Cc2ccccc2)N(C)C1=O` [pd151] ([dA][NMeI]I[NMeF][NMeA][NMeL][Sar]A[NMeL]S(tBu)[NMeF]V[NMeD]-Piperidide; lactam N-13) are 29.6 µL/min/mg, 22.4 µL/min/mg Protein, 3.9 nm/s and 0.39 10^-6 cm/sec.
Consider `CC[C@H](C)[C@@H]1NC(=O)[C@H](Cc2ccccc2)N(C)C(=O)[C@H](CC(C)C)N(C)C(=O)[C@H](CC(C)C)NC(=O)[C@H](C)N(C)C(=O)C[C@@H](C(=O)N2CCCCC2)N(C)C(=O)[C@H](C)N(C)C(=O)[C@H](CC(C)C)NC(=O)[C@H](CC(C)C)N(C)C(=O)CNC(=O)[C@H]([C@@H](C)CC)N(C)C(=O)[C@H](Cc2ccccc2)N(C)C(=O)[C@H](C)NC1=O` [pd152] ([NMeA]L[NMeL][NMeF]IA[NMeF][NMeI]G[NMeL]L[NMeA][NMeD]-Piperidide; lactam N-13), for which, in data set [1], the microsomal CLint at 1 µM was determined as 40.2 µL/min/mg and the “Mouse Hepatic Microsome CLh,int NADPH(-)” value is recorded as 32.5 µL/min/mg Protein. Also, the Papp A→B in data set [2] was found to be 10.2 nm/s. Besides, the “Caco2 Papp (10^-6 cm/sec)” value in the data set with Caco-2 cells is on record as 1.02 10^-6 cm/sec.
Turning to `CC[C@H](C)[C@@H]1NC(=O)[C@H]([C@@H](C)CC)N(C)C(=O)[C@@H](C)NC(=O)C[C@@H](C(=O)N2CCCCC2)N(C)C(=O)[C@H](Cc2ccccc2)N(C)C(=O)[C@H](C(C)C)NC(=O)[C@H](C)N(C)C(=O)[C@H](CC(C)C)N(C)C(=O)[C@H](C)NC(=O)CN(C)C(=O)[C@H](CC(C)C)N(C)C(=O)[C@H](C)N(C)C(=O)[C@H](Cc2ccccc2)N(C)C1=O` [pd153] ([dA][NMeI]I[NMeF][NMeA][NMeL][Sar]A[NMeL][NMeA]V[NMeF][NMeD]-Piperidide; lactam N-13), in data set [1], the microsomal CLint at 1 µM came to 15.1 µL/min/mg and the “Mouse Hepatic Microsome CLh,int NADPH(-)” value stood at 26.0 µL/min/mg Protein. Further, the Papp A→B in data set [2] was found to be 2 nm/s. Also, the “Caco2 Papp (10^-6 cm/sec)” value in the data set with Caco-2 cells is reported as 0.20 10^-6 cm/sec.
In the case of `CCCCN1CC(=O)N(C)[C@@H](Cc2ccccc2)C(=O)N[C@@H](COC(C)(C)C)C(=O)N(C)[C@@H](CC(C)C)C(=O)NCCC(=O)N(C)[C@@H](C)C(=O)N(C)[C@@H]([C@@H](C)CC)C(=O)N[C@@H](CC(C)C)C(=O)N(C)[C@H](C(=O)N2CCCCC2)CC(=O)N(C)CCC(=O)N(C)[C@@H](CC(C)C)C(=O)N[C@@H]([C@@H](C)CC)C(=O)N(C)[C@@H](Cc2ccccc2)C1=O` [pd154] ([NMeβAla][NMeL]I[NMeF][NBuGly][NMeF]S(tBu)[NMeL][βAla][NMeA][NMeI]L[NMeD]-Piperidide; lactam N-13), in data set [1], the microsomal CLint at 1 µM is 41.7 µL/min/mg and the “Mouse Hepatic Microsome CLh,int NADPH(-)” value worked out at 34.3 µL/min/mg Protein. Moreover, the Papp A→B in data set [2] was found to be 8.2 nm/s. Moreover, in the data set with Caco-2 cells, the “Caco2 Papp (10^-6 cm/sec)” value was 0.82 10^-6 cm/sec.
For `CC[C@H](C)[C@H]1C(=O)NCC(=O)N(C)[C@@H](CC(C)C)C(=O)N(C)[C@@H](C(C)C)C(=O)N(C)[C@@H](C)C(=O)N(C)[C@H](C(=O)N2CCCCC2)CC(=O)N(C)[C@@H](C)C(=O)N[C@@H](CC(C)C)C(=O)N(C)[C@@H](CC(C)C)C(=O)N[C@@H](COC(C)(C)C)C(=O)N(C)[C@@H](Cc2ccccc2)C(=O)N[C@@H](C)C(=O)N(C)[C@@H](Cc2ccccc2)C(=O)N1C` [pd155] ([NMeA]L[NMeL]S(tBu)[NMeF]A[NMeF][NMeI]G[NMeL][NMeV][NMeA][NMeD]-Piperidide; lactam N-13) the same measures were 48.8 µL/min/mg, 37.2 µL/min/mg Protein, 8.7 nm/s and 0.87 10^-6 cm/sec.
Regarding `CC[C@H](C)[C@@H]1NC(=O)[C@H](CC(C)C)N(C)C(=O)CN(C)C(=O)C[C@@H](C(=O)N2CCCCC2)N(C)C(=O)CNC(=O)[C@H](C)N(C)C(=O)[C@H](C(C)C)N(C)C(=O)[C@H](C)N(C)C(=O)[C@H](Cc2ccccc2)N(C)C(=O)[C@H](CC(C)C)NC(=O)[C@H](Cc2ccccc2)N(C)C(=O)[C@H](C(C)C)NC(=O)[C@H](CC(C)C)N(C)C1=O` [pd156] ([Sar][NMeL]I[NMeL]V[NMeF]L[NMeF][NMeA][NMeV][NMeA]G[NMeD]-Piperidide; lactam N-13), in data set [1], the microsomal CLint at 1 µM is 34.1 µL/min/mg and the “Mouse Hepatic Microsome CLh,int NADPH(-)” value amounted to 23.7 µL/min/mg Protein. Moreover, in data set [2], the Papp A→B came out at 3.9 nm/s. Besides, the “Caco2 Papp (10^-6 cm/sec)” value in the data set on Caco-2 cells is listed as 0.39 10^-6 cm/sec.
On to `CC(C)C[C@@H]1NC(=O)[C@H](Cc2ccccc2)N(C)C(=O)[C@H](C)N(C)C(=O)[C@H](CC(C)C)N(C)C(=O)CN(C)C(=O)[C@H](C(C)C)N(C)C(=O)[C@H](CC(C)C)N(C)C(=O)[C@H](C(C)C)N(C)C(=O)[C@H](C(C)C)NC(=O)[C@H](CC(C)C)N(C)C(=O)[C@@H](C(C)C)NC(=O)C[C@@H](C(=O)N2CCCCC2)N(C)C(=O)[C@H](C)N(C)C1=O` [pd157] ([dV][NMeL]V[NMeV][NMeL][NMeV][Sar][NMeL][NMeA][NMeF]L[NMeA][NMeD]-Piperidide; lactam N-13), for which, in data set [1], the microsomal CLint at 1 µM amounted to 31.7 µL/min/mg and the “Mouse Hepatic Microsome CLh,int NADPH(-)” value turned out to be 24.9 µL/min/mg Protein. Besides, the Papp A→B in data set [2] was 14.2 nm/s. The “Caco2 Papp (10^-6 cm/sec)” value with Caco-2 cells is 1.42 10^-6 cm/sec.
Regarding `CC(C)C[C@@H]1NC(=O)[C@H](CC(C)C)N(C)C(=O)[C@H]([C@@H](C)O)NC(=O)[C@H](C(C)C)N(C)C(=O)[C@H](Cc2ccccc2)N(C)C(=O)[C@@H](C(C)C)NC(=O)C[C@@H](C(=O)N2CCCCC2)N(C)C(=O)[C@H](C)N(C)C(=O)[C@H](Cc2ccccc2)N(C)C(=O)[C@H](C)NC(=O)[C@H](COC(C)(C)C)NC(=O)[C@H](CC(C)C)N(C)C(=O)CN(C)C1=O` [pd158] ([dV][NMeF][NMeV]T[NMeL]L[Sar][NMeL]S(tBu)A[NMeF][NMeA][NMeD]-Piperidide; lactam N-13), in data set [1], the microsomal CLint at 1 µM was determined as 19.3 µL/min/mg and the “Mouse Hepatic Microsome CLh,int NADPH(-)” value is given as 13.7 µL/min/mg Protein. For the same compound, the Papp A→B in data set [2] was 4.4 nm/s. Further, in the data set on Caco-2 cells, the “Caco2 Papp (10^-6 cm/sec)” value is reported as 0.44 10^-6 cm/sec.
Take `CCCCN1CC(=O)N(C)[C@@H](CC(C)C)C(=O)N[C@@H]([C@@H](C)O)C(=O)N(C)[C@@H](CC(C)C)C(=O)N2CCC[C@H]2C(=O)N[C@@H](CCc2ccccc2)C(=O)N[C@@H]([C@@H](C)CC)C(=O)N(C)[C@H](C(=O)N2CCCCC2)CC(=O)N(C)[C@@H](CC(C)C)C(=O)N[C@@H](COC(C)(C)C)C(=O)N(C)[C@@H](C(C)C)C(=O)N[C@@H]([C@@H](C)CC)C(=O)N2CCC[C@H]2C1=O` [pd159] ([NMeL]S(tBu)[NMeV]IP[NBuGly][NMeL]T[NMeL]P[hPhe]I[NMeD]-Piperidide; lactam N-13): in data set [1], the microsomal CLint at 1 µM is 49.5 µL/min/mg and the “Mouse Hepatic Microsome CLh,int NADPH(-)” value amounted to 42.0 µL/min/mg Protein. The Papp A→B in data set [2] was found to be 6.4 nm/s. The “Caco2 Papp (10^-6 cm/sec)” value in the data set with Caco-2 cells was 0.64 10^-6 cm/sec.
